Values of other authors as cited in paper PMC10713630, “Elucidation of the structural basis for ligand binding and translocation in conserved insect odorant receptor co-receptors” (Nature Communications, 2023).

Experiments:
MhraOR5 M209V = test system: MhraOR5 M209V; parameters: method as in Del Marmol et al. 3; conditions: ref Del Marmol et al. 3; cited from earlier work
MhraOR5 = test system: MhraOR5; parameters: method as in PMID 34349260; conditions: cited from earlier work
MhraOR1 G169A = test system: MhraOR1 G169A; parameters: method as in Del Marmol et al. 3; conditions: ref Del Marmol et al. 3; cited from earlier work
AgamOrco/AgamOR65 = conditions: cited from earlier work

Row | SMILES | Effect on DEET-induced channel response (MhraOR5 M209V) | Agonist of MhraOR5 (MhraOR5) | Effect on Eugenol-induced channel response (MhraOR1 G169A) | EC50 (AgamOrco/AgamOR65; AgamOrco/AgamOR65, ref Tailor et al. 1) [nM] | Potency relative to VUAA1 (AgamOrco/AgamOR65; ranked by EC50)
1 | CCN(CC)C(=O)c1cccc(C)c1 [DEET] | I | agonists |  |  | 
2 | C=CCc1ccc(O)c(OC)c1 [Eugenol, eugenol] |  | agonists | I |  | 
3 | CC(C)c1ccc(NC(=O)CSc2nnc(-c3ccncc3)n2C2CC2)cc1 [VUAA4] |  |  |  | 2100 | greater potency
